± gives the expanded uncertainty stated by the source.
Settings: Liquid, Vibrating tube method

FCC(F)(F)F [1,1,1,2-tetrafluoroethane]
Settings | mass density [kg/m3]
283.55 K, 40000 kPa | 1376.3 ± 2.1
283.55 K, 60000 kPa | 1413.1 ± 2.3
283.55 K, 80000 kPa | 1443.2 ± 2.5
283.56 K, 20000 kPa | 1328.7 ± 2
283.57 K, 5000 kPa | 1279.4 ± 2
283.57 K, 10000 kPa | 1297.9 ± 2
303.39 K, 1000 kPa | 1188.5 ± 2
303.39 K, 5000 kPa | 1212.5 ± 2
303.39 K, 10000 kPa | 1237 ± 2
303.39 K, 20000 kPa | 1275.9 ± 2
303.39 K, 40000 kPa | 1332.1 ± 2.1
303.39 K, 80000 kPa | 1407.4 ± 2.4
303.4 K, 60000 kPa | 1373.9 ± 2.2
322.89 K, 3000 kPa | 1120.9 ± 2.1
322.91 K, 5000 kPa | 1137.8 ± 2.1
322.91 K, 10000 kPa | 1172 ± 2
322.93 K, 20000 kPa | 1221.5 ± 2
322.93 K, 40000 kPa | 1288.4 ± 2.1
322.93 K, 60000 kPa | 1335.8 ± 2.2
322.94 K, 80000 kPa | 1372.8 ± 2.4
342.75 K, 3000 kPa | 1017.4 ± 2.2
342.75 K, 5000 kPa | 1047.5 ± 2.1
342.76 K, 10000 kPa | 1098.8 ± 2.1
342.77 K, 20000 kPa | 1164.1 ± 2
342.77 K, 40000 kPa | 1243.6 ± 2.1
342.78 K, 60000 kPa | 1297.3 ± 2.1
342.78 K, 80000 kPa | 1338.2 ± 2.3
362.57 K, 5000 kPa | 924.9 ± 2.3
362.57 K, 10000 kPa | 1015.4 ± 2.1
362.58 K, 20000 kPa | 1103.4 ± 2
362.59 K, 40000 kPa | 1198.4 ± 2.1
362.59 K, 60000 kPa | 1258.8 ± 2.1
362.59 K, 80000 kPa | 1303.8 ± 2.3

C=CCCCCC [1-heptene]
Settings | mass density [kg/m3]
283.52 K, 15000 kPa | 718.3 ± 2
283.52 K, 20000 kPa | 722.2 ± 2
283.52 K, 25000 kPa | 725.9 ± 2.1
283.52 K, 30000 kPa | 729.4 ± 2.1
283.52 K, 35000 kPa | 732.9 ± 2.1
283.52 K, 40000 kPa | 736.1 ± 2.1
283.52 K, 55000 kPa | 745.3 ± 2.1
283.53 K, 100 kPa | 705.5 ± 2
283.53 K, 500 kPa | 705.9 ± 2
283.53 K, 1000 kPa | 706.4 ± 2
283.53 K, 3000 kPa | 708.2 ± 2
283.53 K, 5000 kPa | 710 ± 2
283.53 K, 10000 kPa | 714.3 ± 2
283.53 K, 45000 kPa | 739.3 ± 2.1
283.53 K, 50000 kPa | 742.4 ± 2.1
283.53 K, 60000 kPa | 748.2 ± 2.1
283.53 K, 80000 kPa | 759 ± 2.2
283.53 K, 90000 kPa | 763.9 ± 2.2
283.54 K, 70000 kPa | 753.8 ± 2.2
283.54 K, 100000 kPa | 768.7 ± 2.3
293.45 K, 100 kPa | 697 ± 2
293.45 K, 500 kPa | 697.4 ± 2
293.45 K, 1000 kPa | 697.9 ± 2
293.45 K, 5000 kPa | 701.8 ± 2
293.45 K, 20000 kPa | 714.8 ± 2
293.45 K, 25000 kPa | 718.7 ± 2.1
293.45 K, 30000 kPa | 722.4 ± 2.1
293.45 K, 35000 kPa | 726 ± 2.1
293.45 K, 55000 kPa | 739 ± 2.1
293.45 K, 60000 kPa | 742 ± 2.1
293.45 K, 70000 kPa | 747.8 ± 2.2
293.45 K, 80000 kPa | 753.2 ± 2.2
293.45 K, 90000 kPa | 758.3 ± 2.2
293.45 K, 100000 kPa | 763.1 ± 2.3
293.46 K, 3000 kPa | 699.9 ± 2
293.46 K, 10000 kPa | 706.4 ± 2
293.46 K, 15000 kPa | 710.7 ± 2
293.46 K, 40000 kPa | 729.4 ± 2.1
293.46 K, 45000 kPa | 732.8 ± 2.1
293.46 K, 50000 kPa | 736 ± 2.1
303.37 K, 100 kPa | 688.4 ± 2
303.37 K, 500 kPa | 688.9 ± 2
303.37 K, 55000 kPa | 732.8 ± 2.1
303.37 K, 100000 kPa | 757.7 ± 2.3
303.38 K, 1000 kPa | 689.5 ± 2
303.38 K, 3000 kPa | 691.6 ± 2
303.38 K, 5000 kPa | 693.6 ± 2
303.38 K, 10000 kPa | 698.5 ± 2
303.38 K, 15000 kPa | 703.1 ± 2
303.38 K, 20000 kPa | 707.4 ± 2
303.38 K, 25000 kPa | 711.5 ± 2.1
303.38 K, 30000 kPa | 715.4 ± 2.1
303.38 K, 35000 kPa | 719.2 ± 2.1
303.38 K, 40000 kPa | 722.8 ± 2.1
303.38 K, 45000 kPa | 726.2 ± 2.1
303.38 K, 50000 kPa | 729.5 ± 2.1
303.38 K, 60000 kPa | 735.9 ± 2.1
303.38 K, 70000 kPa | 741.8 ± 2.2
303.38 K, 80000 kPa | 747.4 ± 2.2
303.38 K, 90000 kPa | 752.6 ± 2.2
313.29 K, 100 kPa | 680.6 ± 2
313.3 K, 500 kPa | 681.1 ± 2
313.3 K, 5000 kPa | 686.2 ± 2
313.3 K, 20000 kPa | 700.9 ± 2
313.3 K, 25000 kPa | 705.2 ± 2.1
313.3 K, 30000 kPa | 709.3 ± 2.1
313.3 K, 35000 kPa | 713.3 ± 2.1
313.3 K, 40000 kPa | 717 ± 2.1
313.3 K, 45000 kPa | 720.6 ± 2.1
313.3 K, 50000 kPa | 724 ± 2.1
313.3 K, 55000 kPa | 727.4 ± 2.1
313.3 K, 60000 kPa | 730.6 ± 2.2
313.3 K, 70000 kPa | 736.8 ± 2.2
313.3 K, 80000 kPa | 742.6 ± 2.2
313.3 K, 90000 kPa | 748 ± 2.2
313.3 K, 100000 kPa | 753.1 ± 2.3
313.31 K, 1000 kPa | 681.8 ± 2
313.31 K, 3000 kPa | 684 ± 2
313.31 K, 10000 kPa | 691.3 ± 2
313.31 K, 15000 kPa | 696.3 ± 2
323.18 K, 100 kPa | 670.5 ± 2
323.18 K, 500 kPa | 671 ± 2
323.18 K, 1000 kPa | 671.6 ± 2
323.18 K, 3000 kPa | 674.1 ± 2
323.18 K, 10000 kPa | 682 ± 2
323.18 K, 25000 kPa | 696.6 ± 2.1
323.18 K, 30000 kPa | 700.9 ± 2.1
323.18 K, 35000 kPa | 705 ± 2.1
323.18 K, 40000 kPa | 708.9 ± 2.1
323.18 K, 45000 kPa | 712.7 ± 2.1
323.18 K, 50000 kPa | 716.3 ± 2.1
323.18 K, 55000 kPa | 719.7 ± 2.1
323.18 K, 60000 kPa | 723.1 ± 2.2
323.18 K, 70000 kPa | 729.6 ± 2.2
323.18 K, 80000 kPa | 735.5 ± 2.2
323.19 K, 5000 kPa | 676.4 ± 2
323.19 K, 15000 kPa | 687.1 ± 2
323.19 K, 20000 kPa | 692 ± 2
323.19 K, 90000 kPa | 741.1 ± 2.3
323.19 K, 100000 kPa | 746.4 ± 2.3
333.04 K, 100 kPa | 661.5 ± 2
333.04 K, 500 kPa | 662 ± 2
333.04 K, 1000 kPa | 662.7 ± 2
333.05 K, 3000 kPa | 665.3 ± 2
333.05 K, 5000 kPa | 667.9 ± 2
333.05 K, 10000 kPa | 673.8 ± 2
333.05 K, 15000 kPa | 679.3 ± 2
333.05 K, 20000 kPa | 684.5 ± 2.1
333.05 K, 25000 kPa | 689.3 ± 2.1
333.05 K, 30000 kPa | 693.8 ± 2.1
333.05 K, 35000 kPa | 698.1 ± 2.1
333.05 K, 40000 kPa | 702.2 ± 2.1
333.05 K, 45000 kPa | 706.2 ± 2.1
333.05 K, 50000 kPa | 709.9 ± 2.1
333.05 K, 55000 kPa | 713.5 ± 2.1
333.05 K, 60000 kPa | 717 ± 2.2
333.05 K, 70000 kPa | 723.7 ± 2.2
333.05 K, 80000 kPa | 729.9 ± 2.2
333.05 K, 90000 kPa | 735.7 ± 2.3
333.05 K, 100000 kPa | 741.1 ± 2.3
342.91 K, 100 kPa | 652.7 ± 2
342.91 K, 500 kPa | 653.3 ± 2
342.91 K, 1000 kPa | 654 ± 2
342.91 K, 3000 kPa | 656.9 ± 2
342.91 K, 15000 kPa | 671.8 ± 2
342.91 K, 30000 kPa | 687.1 ± 2.1
342.91 K, 35000 kPa | 691.7 ± 2.1
342.92 K, 5000 kPa | 659.6 ± 2
342.92 K, 10000 kPa | 666 ± 2
342.92 K, 20000 kPa | 677.4 ± 2.1
342.92 K, 25000 kPa | 682.4 ± 2.1
342.92 K, 40000 kPa | 696 ± 2.1
342.92 K, 45000 kPa | 700.1 ± 2.1
342.92 K, 50000 kPa | 703.9 ± 2.1
342.92 K, 55000 kPa | 707.7 ± 2.2
342.92 K, 60000 kPa | 711.3 ± 2.2
342.92 K, 70000 kPa | 718.3 ± 2.2
342.92 K, 80000 kPa | 724.6 ± 2.2
342.92 K, 90000 kPa | 730.6 ± 2.3
342.92 K, 100000 kPa | 736.2 ± 2.3
352.8 K, 100 kPa | 644.3 ± 2
352.8 K, 500 kPa | 644.9 ± 2
352.8 K, 40000 kPa | 690 ± 2.1
352.8 K, 45000 kPa | 694.3 ± 2.1
352.8 K, 50000 kPa | 698.4 ± 2.1
352.8 K, 70000 kPa | 713.2 ± 2.2
352.8 K, 80000 kPa | 719.7 ± 2.2
352.8 K, 90000 kPa | 725.9 ± 2.3
352.8 K, 100000 kPa | 731.7 ± 2.3
352.81 K, 1000 kPa | 645.7 ± 2
352.81 K, 3000 kPa | 648.8 ± 2
352.81 K, 5000 kPa | 651.6 ± 2
352.81 K, 10000 kPa | 658.4 ± 2
352.81 K, 15000 kPa | 664.7 ± 2
352.81 K, 20000 kPa | 670.5 ± 2.1
352.81 K, 25000 kPa | 675.8 ± 2.1
352.81 K, 30000 kPa | 680.9 ± 2.1
352.81 K, 35000 kPa | 685.6 ± 2.1
352.81 K, 55000 kPa | 702.3 ± 2.2
352.81 K, 60000 kPa | 706 ± 2.2
362.68 K, 100 kPa | 633.6 ± 2
362.68 K, 500 kPa | 634.3 ± 2
362.68 K, 100000 kPa | 725.7 ± 2.3
362.69 K, 1000 kPa | 635 ± 2
362.69 K, 3000 kPa | 638.5 ± 2
362.69 K, 5000 kPa | 641.7 ± 2
362.69 K, 20000 kPa | 661.9 ± 2.1
362.69 K, 30000 kPa | 672.8 ± 2.1
362.69 K, 35000 kPa | 677.8 ± 2.1
362.69 K, 40000 kPa | 682.5 ± 2.1
362.69 K, 45000 kPa | 687 ± 2.1
362.69 K, 50000 kPa | 691.2 ± 2.1
362.69 K, 55000 kPa | 695.2 ± 2.2
362.69 K, 60000 kPa | 699.1 ± 2.2
362.69 K, 70000 kPa | 706.6 ± 2.2
362.69 K, 80000 kPa | 713.4 ± 2.3
362.69 K, 90000 kPa | 719.7 ± 2.3
362.7 K, 10000 kPa | 649.1 ± 2
362.7 K, 15000 kPa | 655.8 ± 2
362.7 K, 25000 kPa | 667.6 ± 2.1
